Reference: US6472348B1, “Pyridone derivatives and herbicides” (Kumiai Chemical Industry Co., Ltd., priority 1996, dated 2002)

Key:
monochoria (Mo) = experiment: Test Example 1: herbicidal effects by paddy field soil treatment; type: in vivo; conditions: 100 g of the active ingredient per 10 ares, 21st day after the application, index 0-5 of Table 47;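 also: grade of growth control; 5 = at least 90%; 4 = 70 to 90%; 3 = 50 to 70%; 2 = 30 to 50%; 1 = 10 to 30%; 0 = under 10%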
How it was run: (§1)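 Herbicidal effect was scored against a graded standard 21 days after treatment. Seeds were sown in puddled, leveled paddy soil flooded to 3 cm depth, and the active ingredient was applied at 100 g per 10 ares before greenhouse culture.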

bulrush (Sc) = experiment: as above; type: in vivo; conditions: 100 g of the active ingredient per 10 ares, 21st day after the application, index 0-5 of Table 47;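 also: grade of growth control; 5 = at least 90%; 4 = 70 to 90%; 3 = 50 to 70%; 2 = 30 to 50%; 1 = 10 to 30%; 0 = under 10%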
How it was run: as §1

barnyardgrass (Ec) [1] = experiment: as above; type: in vivo; conditions: 100 g of the active ingredient per 10 ares, 21st day after the application, index 0-5 of Table 47
How it was run: as §1

slender amaranth (Am) [2] = experiment: Test Example 11: crop plant selectivity by upland field foliage treatment (corn), herbicidal effects; type: in vivo; parameters: scale not given here; conditions: upland field foliage treatment (corn test), dose 1.6 g ai/10a, 14th day after treatment
Protocol: (§2) (Test on Crop Plant Selectivity by Upland Field Foliage Treatment)
(§3) In a plastic pot (surface area: 600 cm^2) filled with sand, corn (Ze), pale smartweed (Po), slender amaranth (Am), common lambsquarters (Ch) and China jute (Ab) were sown and cultured in a green house for 2 weeks. […] The plants were then cultured in a green house, and the evaluation of the herbicidal effects and phytotoxicity was conducted on the 14th day after the treatment in accordance with the standards as identified in Table 47.

pale smartweed (Po) [3] = experiment: as above; type: in vivo; parameters: scale not given here; conditions: upland field foliage treatment (corn test), dose 1.6 g ai/10a, 14th day after treatment
Protocol: as §2, §3

[4] = tested on: common lambsquarters (Ch); experiment: as above; type: in vivo; parameters: scale not given here; conditions: upland field foliage treatment (corn test), dose 1.6 g ai/10a, 14th day after treatment
Protocol: as §2, §3

China jute (Ab) [5] = experiment: as above; type: in vivo; parameters: scale not given here; conditions: upland field foliage treatment (corn test), dose 1.6 g ai/10a, 14th day after treatment
Protocol: as §2, §3

Diaitaria ciliaris (Di) = experiment: Test Example 3: herbicidal effects by upland field foliage treatment; type: in vivo; parameters: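 grade of growth control; 5 = at least 90%; 4 = 70 to 90%; 3 = 50 to 70%; 2 = 30 to 50%; 1 = 10 to 30%; 0 = under 10%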
How it was run: (§4)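 Greenhouse test, upland conditions: seeds sown in sand pots of 120 cm^2 area and overlaid with soil; 2 weeks growth; leaves treated; herbicidal injury graded on day 14 after treatment by fixed standards.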

slender amaranth (Am) [6] = experiment: as above; type: in vivo; parameters: scale not given here
How it was run: as §4

rice flatsedge (Ci) [7] = experiment: as above; type: in vivo; parameters: scale not given here
How it was run: as §4

pale smartweed (Po) [8] = experiment: as above; type: in vivo; parameters: scale not given here
How it was run: as §4

[9] = tested on: common lambsquarters (Ch); experiment: as above; type: in vivo; parameters: scale not given here
How it was run: as §4

barnyardgrass (Ec) [10] = experiment: as above; type: in vivo; parameters: scale not given here
How it was run: as §4

wheat (Tr) = experiment: Test Example 9: crop plant selectivity by upland field foliage treatment (wheat), phytotoxicity; conditions: dose 1.6 g ai/10a, 14th day after treatment;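 also: grade of crop injury; 5 = at least 90%; 4 = 70 to 90%; 3 = 50 to 70%; 2 = 30 to 50%; 1 = 10 to 30%; 0 = under 10%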
How it was run: (§5)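 Wheat and broadleaf weeds were sown together in sand-filled pots and grown for 2 weeks in a greenhouse before foliar treatment. Herbicidal effect on weeds and phytotoxicity to wheat were scored visually against set grading standards on day 14 after treatment, with plants kept in the greenhouse.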

slender amaranth (Am) [11] = experiment: Test Example 2: herbicidal effects by upland field soil treatment; type: in vivo; conditions: 100 g of the active ingredient per 10 ares, evaluated on the 21st day after application;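 also: grade of growth control; 5 = at least 90%; 4 = 70 to 90%; 3 = 50 to 70%; 2 = 30 to 50%; 1 = 10 to 30%; 0 = under 10%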
Description: (§6) (Test on Herbicidal Effects by Upland Field Soil Treatment)

rice flatsedge (Ci) [12] = experiment: as above; type: in vivo; conditions: 100 g of the active ingredient per 10 ares, evaluated on the 21st day after application
Description: as §6

pale smartweed (Po) [13] = experiment: as above; type: in vivo; conditions: 100 g of the active ingredient per 10 ares, evaluated on the 21st day after application
Description: as §6

Digitaria ciliaris (Di) = experiment: as above; type: in vivo; conditions: 100 g of the active ingredient per 10 ares, evaluated on the 21st day after application
Description: as §6

[14] = tested on: common lambsquarters (Ch); experiment: as above; type: in vivo; conditions: 100 g of the active ingredient per 10 ares, evaluated on the 21st day after application
Description: as §6

barnyardgrass (Ec) [15] = experiment: as above; type: in vivo; conditions: 100 g of the active ingredient per 10 ares, evaluated on the 21st day after application
Description: as §6

corn (Ze) = experiment: Test Example 11: crop plant selectivity by upland field foliage treatment (corn), phytotoxicity; conditions: upland field foliage treatment, dose 1.6 g ai/10a, 14th day after treatment
Protocol: as §2, §3

slender amaranth (Am) [16] = experiment: Test Example 9: crop plant selectivity by upland field foliage treatment (wheat), herbicidal effects; type: in vivo; parameters: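 grade of growth control; 5 = at least 90%; 4 = 70 to 90%; 3 = 50 to 70%; 2 = 30 to 50%; 1 = 10 to 30%; 0 = under 10%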; conditions: dose 1.6 g ai/10a, 14th day after treatment
How it was run: as §5

pale smartweed (Po) [17] = experiment: as above; type: in vivo; parameters: scale not given here; conditions: dose 1.6 g ai/10a, 14th day after treatment
How it was run: as §5

[18] = tested on: common lambsquarters (Ch); experiment: as above; type: in vivo; parameters: scale not given here; conditions: dose 1.6 g ai/10a, 14th day after treatment
How it was run: as §5

China jute (Ab) [19] = experiment: as above; type: in vivo; parameters: scale not given here; conditions: dose 1.6 g ai/10a, 14th day after treatment
How it was run: as §5

[20] = 100 g of the active ingredient per 10 ares, evaluated on the 14th day after treatment
[21] = 100 g active ingredient per 10 ares, evaluated 14th day after treatment

SMILES | Herbicidal effects Mo (monochoria (Mo)) | Herbicidal effects Sc (bulrush (Sc)) | Herbicidal effects Ec (barnyardgrass (Ec) [1]) | Herbicidal effects Am (slender amaranth (Am) [2]) | Herbicidal effects Po (pale smartweed (Po) [3]) | Herbicidal effects Ch [4] | Herbicidal effects Ab (China jute (Ab) [5]) | Phytotoxicity Tr (wheat (Tr)) | Herbicidal effects Am (slender amaranth (Am) [11]) | Herbicidal effects Ci (rice flatsedge (Ci) [12]) | Herbicidal effects Po (pale smartweed (Po) [13]) | Herbicidal effects Di (Digitaria ciliaris (Di)) | Herbicidal effects Ch [14] | Herbicidal effects Ec (barnyardgrass (Ec) [15]) | Phytotoxicity Ze (corn (Ze)) | Herbicidal effects Am (slender amaranth (Am) [16]) | Herbicidal effects Po (pale smartweed (Po) [17]) | Herbicidal effects Ch [18] | Herbicidal effects Ab (China jute (Ab) [19]) | Herbicidal effects Di (Diaitaria ciliaris (Di); [21]) | other results
CC(C#N)Oc1cc(-c2ccc(C(F)(F)F)n(C)c2=O)c(F)cc1Cl (stereo not shown) [1-176] | 5 | 5 | 5 | 5 | 5 | 5 | 5 | 1 | 5 | 5 | 5 | 5 | 5 | 5 | 1 | 5 | 5 | 5 | 5 | – | Herbicidal effects Di (Diaitaria ciliaris (Di); [20]): 5; Herbicidal effects Am (slender amaranth (Am) [6]; [20]): 5; Herbicidal effects Ci (rice flatsedge (Ci) [7]; [20]): 5; Herbicidal effects Po (pale smartweed (Po) [8]; [20]): 5; Herbicidal effects Ch [9, 20]: 5; Herbicidal effects Ec (barnyardgrass (Ec) [10]; [20]): 5
C=CCN1C(=O)COc2ccc(-c3ccc(C(F)(F)F)n(C)c3=O)cc21 [2-31] | 5 | 5 | 5 | 5 | 5 | 5 | 5 | 2 | 5 | 5 | 5 | 5 | 5 | 5 | 2 | 5 | 5 | 5 | 5 | 5 | Herbicidal effects Am (slender amaranth (Am) [6]; [21]): 5; Herbicidal effects Ci (rice flatsedge (Ci) [7]; [21]): 5; Herbicidal effects Po (pale smartweed (Po) [8]; [21]): 5; Herbicidal effects Ch [9, 21]: 5; Herbicidal effects Ec (barnyardgrass (Ec) [10]; [21]): 5
COCOCc1cc(-c2ccc(C(F)(F)F)n(C)c2=O)c(F)cc1Cl [Compound 1-200] | 5 | 5 | 5 | 5 | 5 | 5 | 5 | 2 | 5 | 5 | 5 | 5 | 5 | 5 | 2 | 5 | 5 | 5 | 5 | 5 | Herbicidal effects Am (slender amaranth (Am) [6]; [21]): 5; Herbicidal effects Ci (rice flatsedge (Ci) [7]; [21]): 5; Herbicidal effects Po (pale smartweed (Po) [8]; [21]): 5; Herbicidal effects Ch [9, 21]: 5; Herbicidal effects Ec (barnyardgrass (Ec) [10]; [21]): 5
Cn1c(C(F)(F)F)ccc(-c2cc(COC3CCCC3)c(Cl)cc2F)c1=O [Compound 1-201] | 5 | 5 | 5 | 5 | 5 | 5 | 5 | 2 | 5 | 5 | 5 | 5 | 5 | 5 | 2 | 5 | 5 | 5 | 5 | 5 | Herbicidal effects Am (slender amaranth (Am) [6]; [21]): 5; Herbicidal effects Ci (rice flatsedge (Ci) [7]; [21]): 5; Herbicidal effects Po (pale smartweed (Po) [8]; [21]): 5; Herbicidal effects Ch [9, 21]: 5; Herbicidal effects Ec (barnyardgrass (Ec) [10]; [21]): 4
C=C(Cl)COc1cc(-c2ccc(C(F)(F)F)n(C)c2=O)c(F)cc1Cl [Compound 1-203] | 5 | 5 | 5 | 5 | 5 | 5 | 5 | 2 | 5 | 5 | 5 | 5 | 5 | 5 | 2 | 5 | 5 | 5 | 5 | 5 | Herbicidal effects Am (slender amaranth (Am) [6]; [21]): 5; Herbicidal effects Ci (rice flatsedge (Ci) [7]; [21]): 5; Herbicidal effects Po (pale smartweed (Po) [8]; [21]): 5; Herbicidal effects Ch [9, 21]: 5; Herbicidal effects Ec (barnyardgrass (Ec) [10]; [21]): 5
Cn1c(C(F)(F)F)ccc(-c2cc(OCCCF)c(Cl)cc2F)c1=O [Compound 1-204] | 5 | 5 | 5 | 5 | 5 | 5 | 5 | 2 | 5 | 5 | 5 | 5 | 5 | 5 | 2 | 5 | 5 | 5 | 5 | 5 | Herbicidal effects Am (slender amaranth (Am) [6]; [21]): 5; Herbicidal effects Ci (rice flatsedge (Ci) [7]; [21]): 5; Herbicidal effects Po (pale smartweed (Po) [8]; [21]): 5; Herbicidal effects Ch [9, 21]: 5; Herbicidal effects Ec (barnyardgrass (Ec) [10]; [21]): 5
COCN1C(=O)COc2cc(F)c(-c3ccc(C(F)(F)F)n(C)c3=O)cc21 [Compound 2-19] | 5 | 5 | 5 | 5 | 5 | 5 | 5 | 1 | 5 | 5 | 5 | 5 | 5 | 5 | 1 | 5 | 5 | 5 | 5 | 5 | Herbicidal effects Am (slender amaranth (Am) [6]; [21]): 5; Herbicidal effects Ci (rice flatsedge (Ci) [7]; [21]): 5; Herbicidal effects Po (pale smartweed (Po) [8]; [21]): 5; Herbicidal effects Ch [9, 21]: 5; Herbicidal effects Ec (barnyardgrass (Ec) [10]; [21]): 5
